For 2 molecules, IC50 results are on record in publication PMC9146426, “3,6′- and 1,6′-Dithiopomalidomide Mitigate Ischemic Stroke in Rats and Blunt Inflammation” (Pharmaceutics, 2022).

The target in the assay is T1, cereblon (Homo sapiens, UniProt Q96SW2).
T1 construct: gene CRBN; cereblon/DDB1-CUL4A-Rbx1 complex; with DDB1-CUL4A-Rbx1
Kind of assay: AlphaScreen bead-based cereblon binding assay (BPS Bioscience #[…]) with BRD3. A general note: Alpha assays give light when donor and acceptor beads are brought close together.

T1 sequence (Q96SW2 whole entry): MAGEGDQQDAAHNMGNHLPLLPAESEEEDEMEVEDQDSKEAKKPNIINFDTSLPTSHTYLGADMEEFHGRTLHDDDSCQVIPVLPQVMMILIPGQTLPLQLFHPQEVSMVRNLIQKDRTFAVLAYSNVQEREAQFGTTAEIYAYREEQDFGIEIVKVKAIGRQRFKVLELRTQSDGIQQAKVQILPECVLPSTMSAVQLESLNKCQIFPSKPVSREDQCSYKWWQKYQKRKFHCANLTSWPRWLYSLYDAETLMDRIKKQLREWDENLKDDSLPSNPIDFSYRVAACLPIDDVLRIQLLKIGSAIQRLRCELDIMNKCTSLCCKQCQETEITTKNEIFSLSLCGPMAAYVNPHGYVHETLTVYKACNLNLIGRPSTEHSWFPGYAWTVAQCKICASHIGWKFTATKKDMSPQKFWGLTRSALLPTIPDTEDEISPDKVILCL
T1 sequence (Q16531 2-1140 partner): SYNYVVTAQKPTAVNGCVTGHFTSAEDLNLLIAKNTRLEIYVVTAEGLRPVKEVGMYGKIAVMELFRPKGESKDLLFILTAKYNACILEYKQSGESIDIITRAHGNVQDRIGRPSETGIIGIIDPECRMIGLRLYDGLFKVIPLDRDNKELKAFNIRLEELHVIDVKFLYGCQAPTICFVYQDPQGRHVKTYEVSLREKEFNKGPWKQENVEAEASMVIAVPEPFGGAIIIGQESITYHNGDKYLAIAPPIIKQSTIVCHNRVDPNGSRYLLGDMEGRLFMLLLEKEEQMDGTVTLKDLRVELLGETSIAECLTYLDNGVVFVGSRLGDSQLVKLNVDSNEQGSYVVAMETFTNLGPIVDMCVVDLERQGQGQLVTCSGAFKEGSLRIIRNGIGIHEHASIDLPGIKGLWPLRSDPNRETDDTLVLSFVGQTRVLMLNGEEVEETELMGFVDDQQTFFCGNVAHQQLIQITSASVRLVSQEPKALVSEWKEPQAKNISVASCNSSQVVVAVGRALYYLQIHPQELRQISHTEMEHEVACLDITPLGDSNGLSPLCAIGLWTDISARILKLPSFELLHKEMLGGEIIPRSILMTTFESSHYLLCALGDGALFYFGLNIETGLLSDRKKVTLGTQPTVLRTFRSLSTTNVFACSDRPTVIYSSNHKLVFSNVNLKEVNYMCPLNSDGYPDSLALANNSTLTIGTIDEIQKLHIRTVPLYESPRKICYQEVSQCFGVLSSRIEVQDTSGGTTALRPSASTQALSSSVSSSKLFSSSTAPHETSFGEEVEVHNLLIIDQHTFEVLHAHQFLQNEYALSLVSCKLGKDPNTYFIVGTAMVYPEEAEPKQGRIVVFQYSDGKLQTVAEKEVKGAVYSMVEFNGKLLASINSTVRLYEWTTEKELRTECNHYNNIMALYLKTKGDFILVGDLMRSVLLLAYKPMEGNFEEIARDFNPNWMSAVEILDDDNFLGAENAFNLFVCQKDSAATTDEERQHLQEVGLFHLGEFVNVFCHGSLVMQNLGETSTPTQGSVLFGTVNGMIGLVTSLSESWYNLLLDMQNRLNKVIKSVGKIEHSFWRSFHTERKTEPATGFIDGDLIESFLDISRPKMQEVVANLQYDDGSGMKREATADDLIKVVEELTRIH
T1 sequence (Q13619 whole entry partner): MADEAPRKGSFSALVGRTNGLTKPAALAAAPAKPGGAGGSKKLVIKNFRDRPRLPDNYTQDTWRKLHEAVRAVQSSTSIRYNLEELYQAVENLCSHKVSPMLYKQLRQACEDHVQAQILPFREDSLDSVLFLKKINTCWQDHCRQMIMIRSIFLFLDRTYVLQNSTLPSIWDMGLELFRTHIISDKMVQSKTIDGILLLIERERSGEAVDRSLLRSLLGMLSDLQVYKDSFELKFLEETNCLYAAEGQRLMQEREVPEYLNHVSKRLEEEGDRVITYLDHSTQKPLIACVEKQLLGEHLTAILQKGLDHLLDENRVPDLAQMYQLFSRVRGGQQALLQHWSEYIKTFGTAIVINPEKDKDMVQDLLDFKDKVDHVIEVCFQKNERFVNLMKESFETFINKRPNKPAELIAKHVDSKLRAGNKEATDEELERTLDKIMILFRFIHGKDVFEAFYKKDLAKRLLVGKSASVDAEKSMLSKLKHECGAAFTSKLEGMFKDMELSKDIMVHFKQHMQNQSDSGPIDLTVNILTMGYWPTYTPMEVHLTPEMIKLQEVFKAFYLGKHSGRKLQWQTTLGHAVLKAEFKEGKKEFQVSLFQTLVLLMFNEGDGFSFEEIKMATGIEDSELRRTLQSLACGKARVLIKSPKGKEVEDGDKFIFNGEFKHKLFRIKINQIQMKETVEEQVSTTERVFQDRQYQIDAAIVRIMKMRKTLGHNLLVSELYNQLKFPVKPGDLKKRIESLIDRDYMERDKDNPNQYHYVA
T1 sequence (P62877 whole entry partner): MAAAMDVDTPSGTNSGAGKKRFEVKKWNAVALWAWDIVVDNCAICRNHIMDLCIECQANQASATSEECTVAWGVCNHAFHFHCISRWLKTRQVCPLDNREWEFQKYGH

Usually IC50 stands for the concentration that inhibits the measured activity by half. Take `Nc1cccc2c1C(=O)N(C1CCC(=S)NC1=O)C2=S` (centres unmarked) [1,6′-DP, 1,6′-dithiopomalidomide]: the IC50 was determined as 1520 nM.

The molecule `Nc1cccc2c1C(=S)N(C1CCC(=S)NC1=O)C2=O` (centres unmarked) [3,6′-DP, 3,6′-dithiopomalidomide] showed an IC50 of 940 nM.
